As a reminder, the IC50 is the midpoint of a concentration-inhibition curve.

The source of these data is US20200115353A1, “NEW COMPOUNDS INHIBITORS OF THE YAP/TAZ-TEAD INTERACTION AND THEIR USE IN THE TREATMENT OF MALIGNANT MESOTHELIOMA” (INVENTIVA, priority 2017, published 2020).

T1 sequence (P04386+P28347 fused, stated change not applied): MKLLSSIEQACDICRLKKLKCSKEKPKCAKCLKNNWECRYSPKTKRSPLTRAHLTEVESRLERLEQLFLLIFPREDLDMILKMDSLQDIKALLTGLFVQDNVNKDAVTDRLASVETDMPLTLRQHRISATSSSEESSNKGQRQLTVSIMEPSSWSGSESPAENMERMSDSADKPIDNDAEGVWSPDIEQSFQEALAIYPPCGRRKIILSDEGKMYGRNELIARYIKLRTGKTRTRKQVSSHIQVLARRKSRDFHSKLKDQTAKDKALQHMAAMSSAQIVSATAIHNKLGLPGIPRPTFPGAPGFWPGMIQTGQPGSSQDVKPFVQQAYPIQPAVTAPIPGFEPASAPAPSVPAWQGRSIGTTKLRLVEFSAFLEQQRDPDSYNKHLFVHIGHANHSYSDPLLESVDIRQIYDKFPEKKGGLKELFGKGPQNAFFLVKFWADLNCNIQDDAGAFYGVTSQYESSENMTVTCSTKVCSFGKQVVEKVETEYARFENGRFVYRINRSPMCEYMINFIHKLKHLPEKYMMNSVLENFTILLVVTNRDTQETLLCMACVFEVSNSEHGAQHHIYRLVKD

One assay has as its target T1, YAP-TEAD interaction (full length human TEAD1-Gal4 fusion, full length YAP mutant S127A, S397A) (UniProt P04386+P28347).
T1 construct: The TEAD1 construct was prepared by cloning the full length human TEAD1 cDNA; expressed in transfected cells; host or cells: HEK293 GripTite 293 MSR (Invitrogen R795-07), transiently transfected with pSG5_CMV plasmids
Put plainly: Cell-based TEAD-GAL4 transactivation assay (luciferase reporter, HEK293). The conditions noted are these: HEK293 cells, compounds 0.1 μM to 30 μM, 24 h, concentration that inhibited the luciferase activity by 50%. The procedure:
To identify inhibitors of YAP-TEAD interaction, a transient transactivation assays was carried out into HEK293 cell line (HEK293 GripTite™ 293 MSR (Invitrogen R795-07)) using plasmids containing the full length TEAD1 sequences, the full length YAP mutant (S127A, S397A) and a luciferase gene reporter. All expression constructs were performed into pSG5 backbone plasmid in which the SV40 promoter was replaced by the CMV promoter. The TEAD1 construct was prepared by cloning the full length human TEAD1 cDNA in fusion with the Gal4 DNA Binding Domain (AA 1-148) into pSG5_CMV to create the TEAD1(FL)_hum_pSG5Gal4_CMV. The full length YAP mutant (S127A, S397A) was also cloned into pSG_5 CMV to create the YAP(FL)_hum_pSG5_[…]. The reporter plasmid GAL4(5×RE)_[…]_pGL3-Basic contains 5 copies of the GAL4 responsive element (5′-TCGGAGGACAGTACTCC-3′) upstream of the thymidine kinase (TK) promoter (−105/+56) inserted in a pGL3-Basic vector. To evaluate the selectivity of our compounds in blocking the YAP-TEAD interaction, a counter-screening protein-protein interaction transactivation assays was also established. Briefly, two other expression plasmids, the pBD-P53 which express the P53 (AA 72-390) in fusion with Gal4 and the pAD-SV40T which express the SV40 large T antigen (AA 84-708,AgT), were created. HEK293 cells were seeded at 5×10^4 cells/well in 96 well plates (assay plates) in DMEM medium containing 4.5 g/L D-glucose, 10% high inactivated (HI) fetal bovine serum 1% Glutamax, 1% non-essential amino acid and 1% sodium pyruvate and 0.5% penicillin/streptomycin 37° C. in a humidified atmosphere of 8% CO2. After 24 h, transfections are performed using Jet-PEI as transfectant (101B-010 Polyplus Transfection), according to the instructions of the manufacturer (N/P=10) and a ratio YAP/TEAD=10 (per well: 50 ng of YAP(FL), 5 ng of TEAD(FL) and 50 ng of reporter plasmid). Six hours after cell transfection, the plates (‘assay plate’) were washed with 100 μl PBS per well and cell were treated with compounds in semi-log from 0.1 μM to 30 μM or DMSO 0.5% as control in DMEM 4.5 g/L D-Glucose without phenol red, 0.3% BSA, 1% glutamax, 1% NEAA, 1% sodium pyruvate. Twenty-four hours later, the luciferase activity was determined after addition of 100 μl of Steady Glo™ luciferase assay system (Promega E2550) according to the manufacturer's directions. Luciferase activity in cell extracts is measured by reading luminescence using the Envision device.
The cellular response was determined by fitting the concentration response curves using a 3-parameter curve fit equation and determining the concentration that inhibited the luciferase activity by 50%.
Background: In a reporter assay the amount or activity of a reporter protein is the signal.
“3,3-diethyl-5-[(E)-[isobutyl-(5-methoxy-1,1-dioxo-1,2-benzothiazol-3-yl)hydrazono]methyl]indolin-2-one [Ex 101]” gave an IC50 of 5.29 µM.

In turn, `CN(/N=C/c1cccc(OCCO)c1)C1=NS(=O)(=O)c2ccccc21` [Ex 2, 2-[3-[(E)-[(1,1-dioxo-1,2-benzothiazol-3-yl)-methyl-hydrazono]methyl]phenoxy]ethanol] displayed a half-maximal inhibitory concentration (IC50) of 1.11 µM.

Turning to `CN(/N=C/c1cccc(N(C)C)c1)C1=NS(=O)(=O)c2ccccc21` [Ex 4, N-[(E)-[3-(dimethylamino)phenyl]methyleneamino]-N-methyl-1,1-dioxo-1,2-benzothiazol-3-amine], the IC50 was determined as 11.9 µM.

The molecule `CN(/N=C/c1cnc(N2CCCC2)s1)C1=NS(=O)(=O)c2ccccc21` [Ex 6, N-methyl-1,1-dioxo-N-[(E)-(2-pyrrolidin-1-ylthiazol-5-yl)methyleneamino]-1,2-benzothiazol-3-amine] registered a half-inhibitory concentration (IC50) of 1.07 µM.

As for `CN(/N=C/c1cnc(-c2ccccc2)s1)C1=NS(=O)(=O)c2ccccc21` [Ex 8, N-methyl-1,1-dioxo-N-[(E)-(2-phenylthiazol-5-yl)methyleneamino]-1,2-benzothiazol-3-amine], the IC50 is 5.19 µM.

The molecule `COc1cc(/C=N/N(CCc2ccccn2)C2=NS(=O)(=O)c3ccccc32)ccc1F` [Ex 9, N-[(E)-(4-fluoro-3-methoxy-phenyl)methyleneamino]-1,1-dioxo-N-[2-(2-pyridyl)ethyl]-1,2-benzothiazol-3-amine] showed an IC50 of 3.94 µM.

`CCOc1cc(/C=N/N(C)C2=NS(=O)(=O)c3ccccc32)ccc1F` [Ex 11, N-[(E)-(3-ethoxy-4-fluoro-phenyl)methyleneamino]-N-methyl-1,1-dioxo-1,2-benzothiazol-3-amine] displayed an IC50 of 2.85 µM.

The molecule `CCCOc1cc(/C=N/N(C)C2=NS(=O)(=O)c3ccccc32)ccc1F` [Ex 12, N-[(E)-(4-fluoro-3-propoxy-phenyl)methyleneamino]-N-methyl-1,1-dioxo-1,2-benzothiazol-3-amine] showed an IC50 of 1.56 µM.

The molecule `CC(C)Oc1cc(/C=N/N(C)C2=NS(=O)(=O)c3ccccc32)ccc1F` [Ex 13, N-[(E)-(4-fluoro-3-isopropoxy-phenyl)methyleneamino]-N-methyl-1,1-dioxo-1,2-benzothiazol-3-amine] yielded a half-maximal inhibitory concentration (IC50) of 3.35 µM.

In turn, `CN(/N=C/c1ccc(F)c(C(N)=O)c1)C1=NS(=O)(=O)c2ccccc21` [Ex 17, 5-[(E)-[(1,1-dioxo-1,2-benzothiazol-3-yl)-methyl-hydrazono]methyl]-2-fluoro-benzamide] registered an IC50 of 2.75 µM.

For the molecule `CC(C)n1c(=O)[nH]c2ccc(/C=N/N(C)C3=NS(=O)(=O)c4ccccc43)cc21` [Ex 26, 5-[(E)-[(1,1-dioxo-1,2-benzothiazol-3-yl)-methyl-hydrazono]methyl]-3-isopropyl-1H-benzimidazol-2-one], the concentration for half-maximal inhibition (IC50) amounted to 0.62 µM.

On to `CN(/N=C/c1ccc2[nH]c(=O)n(C3CC3)c2c1)C1=NS(=O)(=O)c2ccccc21` [Ex 27, 3-cyclopropyl-5-[(E)-[(1,1-dioxo-1,2-benzothiazol-3-yl)-methyl-hydrazono]methyl]-1H-benzimidazol-2-one], for which the midpoint of inhibition, the IC50, lay at 2.92 µM.

Take `COc1cc(/C=N/N(CC(C)C)C2=NS(=O)(=O)c3ccccc32)ccc1F` [Ex 40, N-[(E)-(4-fluoro-3-methoxy-phenyl)methyleneamino]-N-isobutyl-1,1-dioxo-1,2-benzothiazol-3-amine]: inhibition was half-maximal at 5.33 µM (IC50).

Molecule `CCOCCN(/N=C/c1ccc(F)c(OC)c1)C1=NS(=O)(=O)c2ccccc21` [Ex 43, N-(2-ethoxyethyl)-N-[(E)-(4-fluoro-3-methoxy-phenyl)methyleneamino]-1,1-dioxo-1,2-benzothiazol-3-amine] yielded an IC50 of 2.78 µM.

`COc1cc(/C=N/N(C)C2=NS(=O)(=O)c3ccc([N+](=O)[O-])cc32)ccc1F` [Ex 47, N-[(E)-(4-fluoro-3-methoxy-phenyl)methyleneamino]-N-methyl-5-nitro-1,1-dioxo-1,2-benzothiazol-3-amine] displayed an IC50 of 3.4 µM.

Regarding `COc1cc(/C=N/N(C)C2=NS(=O)(=O)c3cc(N)ccc32)ccc1F` [Ex 49, N3-[(E)-(4-fluoro-3-methoxy-phenyl)methyleneamino]-N3-methyl-1,1-dioxo-1,2-benzothiazole-3,6-diamine], the IC50 came to 3.11 µM.

Molecule `COc1cc(/C=N/N(C)C2=NS(=O)(=O)c3ccc(OCCN(C)C)cc32)ccc1F` [Ex 57, 5-[2-(dimethylamino)ethoxy]-N-[(E)-(4-fluoro-3-methoxy-phenyl)methyleneamino]-N-methyl-1,1-dioxo-1,2-benzothiazol-3-amine] came in with a half-inhibitory concentration (IC50) of 0.53 µM.

The molecule `COc1cc(/C=N/N(C)C2=NS(=O)(=O)c3ccc(OCC(=O)N(C)C)cc32)ccc1F` [Ex 58, 2-[[3-[[(E)-(4-fluoro-3-methoxy-phenyl)methyleneamino]-methyl-amino]-1,1-dioxo-1,2-benzothiazol-5-yl]oxy]-N,N-dimethyl-acetamide] had an IC50 of 3.42 µM.

In turn, `COc1cc(/C=N/N(C)C2=NS(=O)(=O)c3cc(B4OCC(C)(C)CO4)ccc32)ccc1F` [Ex 59, 6-(5,5-dimethyl-1,3,2-dioxaborinan-2-yl)-N-[(E)-(4-fluoro-3-methoxy-phenyl)methyleneamino]-N-methyl-1,1-dioxo-1,2-benzothiazol-3-amine] returned an IC50 of 3.55 µM.

Regarding `CCN(/N=C/c1ccc(F)c(OC)c1)C1=NS(=O)(=O)c2cc(B(O)O)ccc21` [Ex 62, [3-[ethyl-[(E)-(4-fluoro-3-methoxy-phenyl)methyleneamino]amino]-1,1-dioxo-1,2-benzothiazol-6-yl]boronic acid], the half-maximal inhibitory concentration (IC50) amounted to 1.98 µM.

In the case of `COc1cc(/C=N/N(CC(C)C)C2=NS(=O)(=O)c3cc(B(O)O)ccc32)ccc1F` [Ex 63, [3-[[(E)-(4-fluoro-3-methoxy-phenyl)methyleneamino]-isobutyl-amino]-1,1-dioxo-1,2-benzothiazol-6-yl]boronic acid], the IC50 amounted to 1.08 µM.

Consider `CC(C)CN(/N=C/c1ccc2[nH]c(=O)n(C)c2c1)C1=NS(=O)(=O)c2cc(B(O)O)ccc21` [Ex 65, [3-[isobutyl-[(E)-(3-methyl-2-oxo-1H-benzimidazol-5-yl)methyleneamino]amino]-1,1-dioxo-1,2-benzothiazol-6-yl]boronic acid], for which half-maximal inhibition (IC50) required 4.04 µM.

`COc1cc(/C=N/N(CC(C)C)C2=NS(=O)(=O)c3cc(B4OC(=O)CN(C)CC(=O)O4)ccc32)ccc1F` [Ex 69, 2-[3-[[(E)-(4-fluoro-3-methoxy-phenyl)methyleneamino]-isobutyl-amino]-1,1-dioxo-1,2-benzothiazol-6-yl]-6-methyl-1,3,6,2-dioxazaborocane-4,8-dione]: the IC50 was 1.04 µM.

Consider `Cc1ccc2c(c1)C(N(C)/N=C/c1ccc3[nH]c(=O)n(C)c3c1)=NS2(=O)=O` [Ex 70, 3-methyl-5-[(E)-[methyl-(5-methyl-1,1-dioxo-1,2-benzothiazol-3-yl) hydrazono]methyl]-1H-benzimidazol-2-one], for which it took 1.58 µM to reach half-maximal inhibition (IC50).

For the molecule `COc1cc(/C=N/N(CC2CCC2)C2=NS(=O)(=O)c3cc(B(O)O)ccc32)ccc1F` [Ex 80, [3-[cyclobutylmethyl-[(E)-(4-fluoro-3-methoxy-phenyl)methyleneamino]amino]-1,1-dioxo-1,2-benzothiazol-6-yl]boronic acid], the IC50 is 1.07 µM.

The assay is the same for the next values; noted with them: HEK293 cells, compounds 0.1 μM to 30 μM, 24 h, luciferase activity.
On to “3,3-diethyl-5-[(E)-[isobutyl-(5-methoxy-1,1-dioxo-1,2-benzothiazol-3-yl)hydrazono]methyl]indolin-2-one [Ex 101]”, for which the “Max Act. (%), TEAD-GAL4 Transactivation activity” value turned out to be 90%.
